Patent US20170354148A1, “SAFENED HERBICIDAL COMPOSITIONS CONTAINING HALAUXIFEN AND METHODS OF USE THEREOF IN BRASSICA SPECIES” (Dow AgroSciences LLC, priority 2016, published 2017)

Tested on: Spring Argentine canola (Brassica napus, BRSNS)
Experiment: Example 3 field trials (Canada), postemergence crop safety, visual phytotoxicity

SMILES: O=C(O)c1nc(Cl)ccc1Cl [Clopyralid-olamine, 2-hydroxyethanaminium 3,6-dichloro-2-pyridinecarboxylate]
- Mean % Visual Injury (Table 23, 32DAAA, halauxifen-methyl 5, clopyralid-olamine 150 g ae/ha, alone or mixed): 2.0%
- Mean % Visual Injury (Table 23, 49DAAA, halauxifen-methyl 5, clopyralid-olamine 150 g ae/ha, alone or mixed): 0.8%
- Mean % Visual Injury (Table 24, 7DAAA, halauxifen-methyl 5, clopyralid-olamine 150 g ae/ha alone, or both mixed with isoxadifen-ethyl 20 g ae/ha): 2.0%
- Mean % Visual Injury (Table 24, 17DAAA, halauxifen-methyl 5, clopyralid-olamine 150 g ae/ha alone, or both mixed with isoxadifen-ethyl 20 g ae/ha): 1.0%
- Mean % Visual Injury (Table 24, 32DAAA, halauxifen-methyl 5, clopyralid-olamine 150 g ae/ha alone, or both mixed with isoxadifen-ethyl 20 g ae/ha): 2.0%
- Mean % Visual Injury (Table 24, 49DAAA, halauxifen-methyl 5, clopyralid-olamine 150 g ae/ha alone, or both mixed with isoxadifen-ethyl 20 g ae/ha): 0.8%
- Mean % Visual Injury (Table 28, 7DAAA, halauxifen-methyl 5, clopyralid-olamine 150, quinclorac 101 g ae/ha, alone or mixed): 2.0%
- Mean % Visual Injury (Table 28, 17DAAA, halauxifen-methyl 5, clopyralid-olamine 150, quinclorac 101 g ae/ha, alone or mixed): 1.0%
- Mean % Visual Injury (Table 28, 32DAAA, halauxifen-methyl 5, clopyralid-olamine 150, quinclorac 101 g ae/ha, alone or mixed): 2.0%
- Mean % Visual Injury (Table 28, 49DAAA, halauxifen-methyl 5, clopyralid-olamine 150, quinclorac 101 g ae/ha, alone or mixed): 0.8%
- Mean % Visual Growth Inhibition (Trial 1, 16DAA1, halauxifen-methyl 2.5, clopyralid-olamine 150 g ae/ha, alone or mixed): 5.5%
- Mean % Visual Growth Inhibition (Trial 1, 30DAA1, halauxifen-methyl 2.5, clopyralid-olamine 150 g ae/ha, alone or mixed): 6.3%
- Mean % Visual Growth Inhibition (Trial 1, 58DAA1, halauxifen-methyl 2.5, clopyralid-olamine 150 g ae/ha, alone or mixed): 2.8%
- Mean % Visual Growth Inhibition (Trial 2, 32DAA1, halauxifen-methyl 0.62, clopyralid-olamine 150 g ae/ha, alone or mixed): 2.8%
- Mean % Visual Growth Inhibition (Trial 2, 32DAA1, halauxifen-methyl 1.25, clopyralid-olamine 150 g ae/ha, alone or mixed): 2.8%
- Mean % Visual Growth Inhibition (Trial 2, 32DAA1, halauxifen-methyl 2.5, clopyralid-olamine 150 g ae/ha, alone or mixed): 2.8%
- Mean % Visual Growth Inhibition (Trial 2, 49DAA1, halauxifen-methyl 0.62, clopyralid-olamine 150 g ae/ha, alone or mixed): 2.8%
- Mean % Visual Growth Inhibition (Trial 2, 49DAA1, halauxifen-methyl 1.25, clopyralid-olamine 150 g ae/ha, alone or mixed): 2.8%
- Mean % Visual Growth Inhibition (Trial 2, 49DAA1, halauxifen-methyl 2.5, clopyralid-olamine 150 g ae/ha, alone or mixed): 2.8%
- Mean % Visual Growth Inhibition (Trial 3, 8DAA1, halauxifen-methyl 5, clopyralid-olamine 150 g ae/ha, alone or mixed, line r23): 0.8%
- Mean % Visual Growth Inhibition (Trial 3, 8DAA1, halauxifen-methyl 5, clopyralid-olamine 150 g ae/ha, alone or mixed, line r25): 0.3%
- Mean % Visual Growth Inhibition (Trial 3, 8DAA1, halauxifen-methyl 10, clopyralid-olamine 150 g ae/ha, alone or mixed, line r22): 0.8%
- Mean % Visual Growth Inhibition (Trial 3, 8DAA1, halauxifen-methyl 10, clopyralid-olamine 150 g ae/ha, alone or mixed, line r24): 0.3%
- Mean % Visual Growth Inhibition (Trial 3, 17DAA1, halauxifen-methyl 5, clopyralid-olamine 150 g ae/ha, alone or mixed, line r27): 1.0%
- Mean % Visual Growth Inhibition (Trial 3, 17DAA1, halauxifen-methyl 5, clopyralid-olamine 150 g ae/ha, alone or mixed, line r29): 1.3%
- Mean % Visual Growth Inhibition (Trial 3, 17DAA1, halauxifen-methyl 10, clopyralid-olamine 150 g ae/ha, alone or mixed, line r26): 1.0%
- Mean % Visual Growth Inhibition (Trial 3, 17DAA1, halauxifen-methyl 10, clopyralid-olamine 150 g ae/ha, alone or mixed, line r28): 1.3%
- Mean % Visual Growth Inhibition (Trial 3, 35DAA1, halauxifen-methyl 10, clopyralid-olamine 150 g ae/ha, alone or mixed): 0.8%
- Mean % Visual Growth Inhibition (Trial 3, 48DAA1, halauxifen-methyl 5, clopyralid-olamine 150 g ae/ha, alone or mixed, line r31): 2.0%
- Mean % Visual Growth Inhibition (Trial 3, 48DAA1, halauxifen-methyl 5, clopyralid-olamine 150 g ae/ha, alone or mixed, line r32): 0.8%
- Mean % Visual Growth Inhibition (Trial 4, 13DAA1, halauxifen-methyl 10, clopyralid-olamine 150 g ae/ha, alone or mixed, line r33): 0.0%
- Mean % Visual Growth Inhibition (Trial 4, 13DAA1, halauxifen-methyl 10, clopyralid-olamine 150 g ae/ha, alone or mixed, line r34): 0.0%
- Mean % Visual Growth Inhibition (Trial 5, 7DAA1, halauxifen-methyl 0.62, clopyralid-olamine 150 g ae/ha, alone or mixed): 1.3%
- Mean % Visual Growth Inhibition (Trial 5, 7DAA1, halauxifen-methyl 1.25, clopyralid-olamine 150 g ae/ha, alone or mixed): 1.3%
- Mean % Visual Growth Inhibition (Trial 5, 7DAA1, halauxifen-methyl 2.5, clopyralid-olamine 150 g ae/ha, alone or mixed): 1.3%
- Mean % Visual Growth Inhibition (Trial 5, 7DAA1, halauxifen-methyl 5, clopyralid-olamine 150 g ae/ha, alone or mixed): 1.3%
- Mean % Visual Growth Inhibition (Trial 6, 33DAA1, halauxifen-methyl 5, clopyralid-olamine 150 g ae/ha, alone or mixed): 0.5%
- Mean % Visual Growth Inhibition (Trial 7, 8DAA1, halauxifen-methyl 5, clopyralid-olamine 150 g ae/ha, alone or mixed): 1.5%
- Mean % Visual Growth Inhibition (Trial 7, 15DAA1, halauxifen-methyl 0.62, clopyralid-olamine 150 g ae/ha, alone or mixed): 1.0%
- Mean % Visual Growth Inhibition (Trial 7, 15DAA1, halauxifen-methyl 5, clopyralid-olamine 150 g ae/ha, alone or mixed): 1.0%
- Mean % Visual Growth Inhibition (Trial 8, 7DAA1, halauxifen-methyl 5, clopyralid-olamine 150 g ae/ha, alone or mixed): 0.5%
- Mean % Visual Growth Inhibition (Trial 8, 7DAA1, halauxifen-methyl 10, clopyralid-olamine 150 g ae/ha, alone or mixed, line r44): 0.0%
- Mean % Visual Growth Inhibition (Trial 8, 7DAA1, halauxifen-methyl 10, clopyralid-olamine 150 g ae/ha, alone or mixed, line r45): 0.0%
- Mean % Visual Growth Inhibition (Trial 8, 7DAA1, halauxifen-methyl 10, clopyralid-olamine 150 g ae/ha, alone or mixed, line r46): 1.3%
- Mean % Visual Growth Inhibition (Trial 8, 7DAA1, halauxifen-methyl 10, clopyralid-olamine 150 g ae/ha, alone or mixed, line r47): 1.5%
- Mean % Visual Growth Inhibition (Trial 8, 15DAA1, halauxifen-methyl 5, clopyralid-olamine 150 g ae/ha, alone or mixed): 0.0%
- Mean % Visual Growth Inhibition (Trial 8, 15DAA1, halauxifen-methyl 10, clopyralid-olamine 150 g ae/ha, alone or mixed, line r49): 0.0%
- Mean % Visual Growth Inhibition (Trial 8, 15DAA1, halauxifen-methyl 10, clopyralid-olamine 150 g ae/ha, alone or mixed, line r50): 0.5%
- Mean % Visual Growth Inhibition (Trial 9, 6DAA1, halauxifen-methyl 5, clopyralid-olamine 150 g ae/ha, alone or mixed): 0.0%
- Mean % Visual Growth Inhibition (Trial 9, 23DAA1, halauxifen-methyl 2.5, clopyralid-olamine 150 g ae/ha, alone or mixed): 0.0%
- Mean % Visual Growth Inhibition (Trial 9, 23DAA1, halauxifen-methyl 5, clopyralid-olamine 150 g ae/ha, alone or mixed): 0.0%
- Mean % Visual Growth Inhibition (Trial 9, 33DAA1, halauxifen-methyl 5, clopyralid-olamine 150 g ae/ha, alone or mixed): 0.0%
- Mean % Visual Growth Inhibition (Trial 9, 59DAA1, halauxifen-methyl 5, clopyralid-olamine 150 g ae/ha, alone or mixed): 0.0%
- Mean % Visual Growth Inhibition (Trial 10, 17DAA1, halauxifen-methyl 5, clopyralid-olamine 100 g ae/ha, alone or mixed): 0.0%
- Mean % Visual Growth Inhibition (Trial 10, 17DAA1, halauxifen-methyl 5, clopyralid-olamine 150 g ae/ha, alone or mixed): 0.0%
- Mean % Visual Growth Inhibition (Trial 10, 17DAA1, halauxifen-methyl 5, clopyralid-olamine 200 g ae/ha, alone or mixed): 0.0%
- Mean % Visual Growth Inhibition (Trial 10, 27DAA1, halauxifen-methyl 5, clopyralid-olamine 150 g ae/ha, alone or mixed): 0.0%
- Mean % Visual Growth Inhibition (Trial 10, 27DAA1, halauxifen-methyl 5, clopyralid-olamine 200 g ae/ha, alone or mixed): 1.7%
- Mean % Visual Growth Inhibition (Trial 11, 7DAA1, halauxifen-methyl 5, clopyralid-olamine 150 g ae/ha, alone or mixed): 2.5%
- Mean % Visual Growth Inhibition (Trial 11, 15DAA1, halauxifen-methyl 0.62, clopyralid-olamine 150 g ae/ha, alone or mixed): 3.0%
- Mean % Visual Growth Inhibition (Trial 11, 15DAA1, halauxifen-methyl 1.25, clopyralid-olamine 150 g ae/ha, alone or mixed): 3.0%
- Mean % Visual Growth Inhibition (Trial 12, 15DAA1, halauxifen-methyl 10, clopyralid-olamine 150 g ae/ha, alone or mixed): 0.0%
- Mean % Visual Growth Inhibition (Trial 12, 27DAA1, halauxifen-methyl 5, clopyralid-olamine 150 g ae/ha, alone or mixed): 1.0%
